# According to patent publication US8546373B2 (Biogenic Innovations, LLC, priority 2009, dated 2013):
# Tested on: Streptococcus pneumonia
# Settings: 7 h, 5 %
smiles,measurement,value
"C[S+](C)[O-] [DMSO, dimethyl sulfoxide]",reduction in viability,approximately 25%
